Experimental data published in ChEMBL document CHEMBL1155237, “Selective inhibitors of the mutant B-Raf pathway: discovery of a potent and orally bioavailable aminoisoquinoline” (J Med Chem, 2009).

How the values were obtained:
[1] = biological target: Casein kinase II subunit alpha (Homo sapiens) (UniProt P68400); test: Inhibition of CSNK2A1 assessed as enzyme activity at 1 uM relative to untreated control; parameters: scale not given: the % may be the effect or the level left
[2] = biological target: Serine/threonine-protein kinase 33 (Homo sapiens) (UniProt Q9BYT3); test: Inhibition of STK33 assessed as enzyme activity at 1 uM relative to untreated control; parameters: scale not given: the % may be the effect or the level left
[3] = biological target: Serine/threonine-protein kinase PAK 3 (Homo sapiens) (UniProt O75914); test: Inhibition of PAK3 assessed as enzyme activity at 1 uM relative to untreated control; parameters: scale not given: the % may be the effect or the level left
[4] = biological target: Tyrosine-protein kinase ABL1 (Homo sapiens) (UniProt P00519); test: Inhibition of ABL1 assessed as enzyme activity at 1 uM relative to untreated control; parameters: scale not given: the % may be the effect or the level left
[5] = biological target: Mitogen-activated protein kinase kinase kinase kinase 3 (Homo sapiens) (UniProt Q8IVH8); test: Inhibition of MAP4K3 assessed as enzyme activity at 1 uM relative to untreated control; parameters: scale not given: the % may be the effect or the level left
[6] = biological target: Tyrosine-protein kinase Srms (Homo sapiens) (UniProt Q9H3Y6); test: Inhibition of SRMS assessed as enzyme activity at 1 uM relative to untreated control; parameters: scale not given: the % may be the effect or the level left
[7] = biological target: Rho-associated protein kinase 2 (Homo sapiens) (UniProt O75116); test: Inhibition of ROCK2 assessed as enzyme activity at 1 uM relative to untreated control; parameters: scale not given: the % may be the effect or the level left
[8] = biological target: Phosphatidylinositol 4-phosphate 5-kinase type-1 alpha (Homo sapiens) (UniProt Q99755); test: Inhibition of PIP5K1A assessed as enzyme activity at 1 uM relative to untreated control; parameters: scale not given: the % may be the effect or the level left
[9] = Oral bioavailability in CD1 mouse; format: ADME, organism-based; details: in vivo
[10] = biological target: Serine/threonine-protein kinase SIK2 (Homo sapiens) (UniProt Q9H0K1); test: Inhibition of SNF1LK2 assessed as enzyme activity at 1 uM relative to untreated control; parameters: scale not given: the % may be the effect or the level left
[11] = biological target: Ribosomal protein S6 kinase alpha-6 (Homo sapiens) (UniProt Q9UK32); test: Inhibition of RPS6KA6 kinase domain 2 assessed as enzyme activity at 1 uM relative to untreated control; parameters: scale not given: the % may be the effect or the level left
[12] = biological target: Inhibitor of nuclear factor kappa-B kinase subunit epsilon (Homo sapiens) (UniProt Q14164); test: Inhibition of IKK-epsilon assessed as enzyme activity at 1 uM relative to untreated control; parameters: scale not given: the % may be the effect or the level left
[13] = tested on: A-375; test: Antitumor activity against human A375 SQ2 cells xenografted in po dosed CD1 mouse assessed as inhibition of tumor growth administered once daily for 14 days; format: functional; details: 336 h
[14] = biological target: Mitogen-activated protein kinase 11 (Homo sapiens) (UniProt Q15759); test: Inhibition of p38beta assessed as enzyme activity at 1 uM relative to untreated control; parameters: scale not given: the % may be the effect or the level left
[15] = biological target: Serine/threonine-protein kinase DCLK2 (Homo sapiens) (UniProt Q8N568); test: Inhibition of DCAMKL2 assessed as enzyme activity at 1 uM relative to untreated control; parameters: scale not given: the % may be the effect or the level left
[16] = biological target: Ribosomal protein S6 kinase alpha-4 (Homo sapiens) (UniProt O75676); test: Inhibition of RPS6KA4 kinase domain 2 assessed as enzyme activity at 1 uM relative to untreated control; parameters: scale not given: the % may be the effect or the level left
[17] = tested on: Proto-oncogene tyrosine-protein kinase receptor Ret (Homo sapiens), P07949 [M918T]; test: Inhibition of RET M918T mutant assessed as enzyme activity at 1 uM relative to untreated control; parameters: scale not given: the % may be the effect or the level left
[18] = biological target: Serine/threonine-protein kinase Nek1 (Homo sapiens) (UniProt Q96PY6); test: Inhibition of NEK1 assessed as enzyme activity at 1 uM relative to untreated control; parameters: scale not given: the % may be the effect or the level left
[19] = biological target: Tyrosine-protein kinase ITK/TSK (Homo sapiens) (UniProt Q08881); test: Inhibition of ITK assessed as enzyme activity at 1 uM relative to untreated control; parameters: scale not given: the % may be the effect or the level left
[20] = biological target: Fibroblast growth factor receptor 4 (Homo sapiens) (UniProt P22455); test: Inhibition of FGFR4 assessed as enzyme activity at 1 uM relative to untreated control; parameters: scale not given: the % may be the effect or the level left
[21] = tested on: Tyrosine-protein kinase ABL1 (Homo sapiens), P00519 [H396P]; test: Inhibition of ABL1 H396P mutant assessed as enzyme activity at 1 uM relative to untreated control; parameters: scale not given: the % may be the effect or the level left
[22] = biological target: Protein-tyrosine kinase 2-beta (Homo sapiens) (UniProt Q14289); test: Inhibition of PTK2B assessed as enzyme activity at 1 uM relative to untreated control; parameters: scale not given: the % may be the effect or the level left
[23] = biological target: Cyclin-G-associated kinase (Homo sapiens) (UniProt O14976); test: Inhibition of GAK assessed as enzyme activity at 1 uM relative to untreated control; parameters: scale not given: the % may be the effect or the level left
[24] = biological target: Membrane-associated tyrosine- and threonine-specific cdc2-inhibitory kinase (Homo sapiens) (UniProt Q99640); test: Inhibition of PKMYT1 assessed as enzyme activity at 1 uM relative to untreated control; parameters: scale not given: the % may be the effect or the level left
[25] = tested on: Epidermal growth factor receptor (Homo sapiens), P00533 [G719S]; test: Inhibition of EGFR G719S mutant assessed as enzyme activity at 1 uM relative to untreated control; format: protein assay; parameters: scale not given: the % may be the effect or the level left
[26] = biological target: MAP kinase-activated protein kinase 5 (Homo sapiens) (UniProt Q8IW41); test: Inhibition of MAPKAPK5 assessed as enzyme activity at 1 uM relative to untreated control; parameters: scale not given: the % may be the effect or the level left
[27] = biological target: Death-associated protein kinase 2 (Homo sapiens) (UniProt Q9UIK4); test: Inhibition of DAPK2 assessed as enzyme activity at 1 uM relative to untreated control; parameters: scale not given: the % may be the effect or the level left
[28] = biological target: Angiopoietin-1 receptor (Homo sapiens, UniProt Q02763); test: Inhibition of Tie2
[29] = biological target: Citron Rho-interacting kinase (Homo sapiens) (UniProt O14578); test: Inhibition of CIT assessed as enzyme activity at 1 uM relative to untreated control; parameters: scale not given: the % may be the effect or the level left
[30] = biological target: RAC-alpha serine/threonine-protein kinase (Homo sapiens) (UniProt P31749); test: Inhibition of AKT1 assessed as enzyme activity at 1 uM relative to untreated control; parameters: scale not given: the % may be the effect or the level left
[31] = biological target: Proto-oncogene tyrosine-protein kinase ROS (Homo sapiens) (UniProt P08922); test: Inhibition of ROS1 assessed as enzyme activity at 1 uM relative to untreated control; parameters: scale not given: the % may be the effect or the level left
[32] = tested on: Proto-oncogene tyrosine-protein kinase receptor Ret (Homo sapiens), P07949 [V804L]; test: Inhibition of RET V804L mutant assessed as enzyme activity at 1 uM relative to untreated control; parameters: scale not given: the % may be the effect or the level left
[33] = biological target: SRSF protein kinase 1 (Homo sapiens) (UniProt Q96SB4); test: Inhibition of SRPK1 assessed as enzyme activity at 1 uM relative to untreated control; parameters: scale not given: the % may be the effect or the level left
[34] = biological target: Misshapen-like kinase 1 (Homo sapiens) (UniProt Q8N4C8); test: Inhibition of MINK assessed as enzyme activity at 1 uM relative to untreated control; parameters: scale not given: the % may be the effect or the level left
[35] = biological target: Muscle, skeletal receptor tyrosine-protein kinase (Homo sapiens) (UniProt O15146); test: Inhibition of MUSK assessed as enzyme activity at 1 uM relative to untreated control; parameters: scale not given: the % may be the effect or the level left
[36] = biological target: Tyrosine-protein kinase JAK2 (Homo sapiens) (UniProt O60674); test: Inhibition of JAK2 kinase domain 2 assessed as enzyme activity at 1 uM relative to untreated control; parameters: scale not given: the % may be the effect or the level left
[37] = biological target: Serine/threonine-protein kinase 3 (Homo sapiens) (UniProt Q13188); test: Inhibition of MST2 assessed as enzyme activity at 1 uM relative to untreated control; parameters: scale not given: the % may be the effect or the level left
[38] = biological target: NT-3 growth factor receptor (Homo sapiens) (UniProt Q16288); test: Inhibition of TRKC assessed as enzyme activity at 1 uM relative to untreated control; parameters: scale not given: the % may be the effect or the level left

Sequence of Phosphatidylinositol 4-phosphate 5-kinase type-1 alpha (Homo sapiens) (Q99755 whole entry): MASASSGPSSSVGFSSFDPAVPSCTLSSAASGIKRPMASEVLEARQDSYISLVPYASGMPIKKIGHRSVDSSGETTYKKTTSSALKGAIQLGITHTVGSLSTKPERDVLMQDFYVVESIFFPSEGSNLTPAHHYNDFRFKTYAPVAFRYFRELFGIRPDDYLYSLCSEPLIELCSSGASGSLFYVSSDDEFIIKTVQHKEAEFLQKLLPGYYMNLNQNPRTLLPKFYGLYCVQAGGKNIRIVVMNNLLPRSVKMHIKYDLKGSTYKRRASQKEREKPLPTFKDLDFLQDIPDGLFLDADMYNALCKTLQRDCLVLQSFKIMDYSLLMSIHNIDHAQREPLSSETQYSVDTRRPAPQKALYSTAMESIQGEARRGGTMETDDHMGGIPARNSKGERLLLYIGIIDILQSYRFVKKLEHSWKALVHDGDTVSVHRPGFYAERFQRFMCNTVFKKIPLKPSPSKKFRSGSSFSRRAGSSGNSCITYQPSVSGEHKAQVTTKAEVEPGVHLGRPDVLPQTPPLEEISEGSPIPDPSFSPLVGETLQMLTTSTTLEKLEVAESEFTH
Sequence of Angiopoietin-1 receptor (Q02763 whole entry): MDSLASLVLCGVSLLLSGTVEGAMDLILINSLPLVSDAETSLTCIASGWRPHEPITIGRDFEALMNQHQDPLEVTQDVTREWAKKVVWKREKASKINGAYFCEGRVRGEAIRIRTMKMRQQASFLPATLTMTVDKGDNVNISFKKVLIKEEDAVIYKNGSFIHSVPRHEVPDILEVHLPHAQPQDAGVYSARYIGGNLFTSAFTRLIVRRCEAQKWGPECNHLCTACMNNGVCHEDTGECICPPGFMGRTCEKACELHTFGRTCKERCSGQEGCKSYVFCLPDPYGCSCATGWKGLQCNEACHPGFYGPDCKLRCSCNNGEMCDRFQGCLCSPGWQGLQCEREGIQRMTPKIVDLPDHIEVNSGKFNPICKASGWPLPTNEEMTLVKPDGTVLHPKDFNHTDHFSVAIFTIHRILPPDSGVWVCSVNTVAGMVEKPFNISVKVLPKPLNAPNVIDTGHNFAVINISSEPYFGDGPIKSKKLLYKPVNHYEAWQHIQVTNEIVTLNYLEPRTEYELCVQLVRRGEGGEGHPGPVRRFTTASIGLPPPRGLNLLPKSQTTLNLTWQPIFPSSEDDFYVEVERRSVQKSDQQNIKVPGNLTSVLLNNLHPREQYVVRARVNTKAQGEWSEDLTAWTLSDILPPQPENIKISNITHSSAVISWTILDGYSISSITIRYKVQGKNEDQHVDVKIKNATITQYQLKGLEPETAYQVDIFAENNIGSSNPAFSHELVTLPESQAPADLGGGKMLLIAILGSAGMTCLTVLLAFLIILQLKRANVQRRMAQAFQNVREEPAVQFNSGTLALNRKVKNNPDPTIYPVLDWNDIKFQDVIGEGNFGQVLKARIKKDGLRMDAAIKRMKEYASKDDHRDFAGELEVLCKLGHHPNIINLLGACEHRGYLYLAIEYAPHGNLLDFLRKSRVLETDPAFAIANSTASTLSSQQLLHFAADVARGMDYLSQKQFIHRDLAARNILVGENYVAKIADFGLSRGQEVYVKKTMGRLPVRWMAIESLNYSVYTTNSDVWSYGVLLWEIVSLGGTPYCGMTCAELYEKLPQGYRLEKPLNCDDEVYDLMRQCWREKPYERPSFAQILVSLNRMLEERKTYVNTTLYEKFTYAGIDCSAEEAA
Sequence of Tyrosine-protein kinase Srms (Homo sapiens) (Q9H3Y6 whole entry): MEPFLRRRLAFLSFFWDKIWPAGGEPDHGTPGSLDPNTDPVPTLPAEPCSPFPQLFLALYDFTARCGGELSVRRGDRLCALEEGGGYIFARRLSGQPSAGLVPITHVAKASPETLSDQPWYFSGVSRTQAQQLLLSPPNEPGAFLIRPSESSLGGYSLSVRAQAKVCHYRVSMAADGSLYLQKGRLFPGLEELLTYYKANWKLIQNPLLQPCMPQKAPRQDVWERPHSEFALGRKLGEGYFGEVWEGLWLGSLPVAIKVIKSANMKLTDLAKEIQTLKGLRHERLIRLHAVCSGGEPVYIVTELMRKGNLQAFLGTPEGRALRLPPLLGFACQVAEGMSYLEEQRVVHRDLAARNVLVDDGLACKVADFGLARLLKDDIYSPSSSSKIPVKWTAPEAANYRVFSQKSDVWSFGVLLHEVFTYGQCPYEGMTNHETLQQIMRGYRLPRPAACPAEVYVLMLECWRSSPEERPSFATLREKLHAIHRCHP
Sequence of Serine/threonine-protein kinase 3 (Homo sapiens) (Q13188 whole entry): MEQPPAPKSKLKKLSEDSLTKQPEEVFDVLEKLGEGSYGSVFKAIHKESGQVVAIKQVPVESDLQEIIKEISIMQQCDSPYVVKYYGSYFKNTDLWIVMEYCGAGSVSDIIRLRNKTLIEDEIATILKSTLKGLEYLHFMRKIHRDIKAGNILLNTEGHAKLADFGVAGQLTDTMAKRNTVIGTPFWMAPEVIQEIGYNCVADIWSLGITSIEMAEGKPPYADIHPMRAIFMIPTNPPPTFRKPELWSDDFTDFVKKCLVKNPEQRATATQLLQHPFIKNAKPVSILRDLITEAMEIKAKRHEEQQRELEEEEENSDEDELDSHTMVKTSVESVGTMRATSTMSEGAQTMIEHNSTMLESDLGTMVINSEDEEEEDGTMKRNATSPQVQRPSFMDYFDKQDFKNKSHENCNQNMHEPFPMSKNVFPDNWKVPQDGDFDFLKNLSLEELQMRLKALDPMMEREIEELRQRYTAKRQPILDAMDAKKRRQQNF
Sequence of Serine/threonine-protein kinase DCLK2 (Homo sapiens) (Q8N568 whole entry, the tested form may be a part): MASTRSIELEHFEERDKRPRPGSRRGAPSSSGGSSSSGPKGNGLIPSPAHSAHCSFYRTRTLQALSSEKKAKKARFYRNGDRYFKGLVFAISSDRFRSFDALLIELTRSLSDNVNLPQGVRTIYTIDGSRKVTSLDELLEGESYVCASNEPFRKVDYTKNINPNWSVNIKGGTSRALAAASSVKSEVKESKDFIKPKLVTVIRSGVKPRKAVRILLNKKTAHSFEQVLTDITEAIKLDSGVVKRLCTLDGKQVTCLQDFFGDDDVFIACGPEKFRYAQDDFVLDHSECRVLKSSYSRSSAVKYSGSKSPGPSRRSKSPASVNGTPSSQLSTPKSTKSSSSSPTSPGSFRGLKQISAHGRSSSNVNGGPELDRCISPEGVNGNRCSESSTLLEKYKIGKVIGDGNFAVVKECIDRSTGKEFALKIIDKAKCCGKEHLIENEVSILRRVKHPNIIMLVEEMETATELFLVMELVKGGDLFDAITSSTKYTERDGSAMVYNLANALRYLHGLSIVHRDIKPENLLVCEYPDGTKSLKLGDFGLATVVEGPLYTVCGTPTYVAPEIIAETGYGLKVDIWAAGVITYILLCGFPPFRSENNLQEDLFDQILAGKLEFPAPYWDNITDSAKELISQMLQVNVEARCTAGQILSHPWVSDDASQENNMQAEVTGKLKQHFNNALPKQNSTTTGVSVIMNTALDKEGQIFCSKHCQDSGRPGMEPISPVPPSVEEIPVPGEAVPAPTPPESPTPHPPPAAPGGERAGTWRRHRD
Sequence of Inhibitor of nuclear factor kappa-B kinase subunit epsilon (Homo sapiens) (Q14164 whole entry): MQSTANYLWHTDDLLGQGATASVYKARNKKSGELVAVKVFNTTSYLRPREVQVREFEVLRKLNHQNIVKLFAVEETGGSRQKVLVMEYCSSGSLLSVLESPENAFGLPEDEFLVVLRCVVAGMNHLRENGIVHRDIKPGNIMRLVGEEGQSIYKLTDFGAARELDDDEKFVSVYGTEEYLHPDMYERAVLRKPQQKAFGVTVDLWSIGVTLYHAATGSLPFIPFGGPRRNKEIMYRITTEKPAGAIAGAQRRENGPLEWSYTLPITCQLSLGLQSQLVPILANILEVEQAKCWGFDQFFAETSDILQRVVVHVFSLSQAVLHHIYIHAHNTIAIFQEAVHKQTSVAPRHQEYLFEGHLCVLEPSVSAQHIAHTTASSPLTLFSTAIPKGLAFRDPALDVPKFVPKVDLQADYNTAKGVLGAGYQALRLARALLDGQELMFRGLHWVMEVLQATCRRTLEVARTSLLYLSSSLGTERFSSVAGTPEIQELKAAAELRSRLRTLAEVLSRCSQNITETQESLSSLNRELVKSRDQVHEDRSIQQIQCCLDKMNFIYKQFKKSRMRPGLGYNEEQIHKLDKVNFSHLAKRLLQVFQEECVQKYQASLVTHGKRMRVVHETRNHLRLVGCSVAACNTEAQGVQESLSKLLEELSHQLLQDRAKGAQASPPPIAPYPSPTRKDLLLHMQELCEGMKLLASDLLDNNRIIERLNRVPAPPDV
Sequence of Mitogen-activated protein kinase kinase kinase kinase 3 (Homo sapiens) (Q8IVH8 whole entry): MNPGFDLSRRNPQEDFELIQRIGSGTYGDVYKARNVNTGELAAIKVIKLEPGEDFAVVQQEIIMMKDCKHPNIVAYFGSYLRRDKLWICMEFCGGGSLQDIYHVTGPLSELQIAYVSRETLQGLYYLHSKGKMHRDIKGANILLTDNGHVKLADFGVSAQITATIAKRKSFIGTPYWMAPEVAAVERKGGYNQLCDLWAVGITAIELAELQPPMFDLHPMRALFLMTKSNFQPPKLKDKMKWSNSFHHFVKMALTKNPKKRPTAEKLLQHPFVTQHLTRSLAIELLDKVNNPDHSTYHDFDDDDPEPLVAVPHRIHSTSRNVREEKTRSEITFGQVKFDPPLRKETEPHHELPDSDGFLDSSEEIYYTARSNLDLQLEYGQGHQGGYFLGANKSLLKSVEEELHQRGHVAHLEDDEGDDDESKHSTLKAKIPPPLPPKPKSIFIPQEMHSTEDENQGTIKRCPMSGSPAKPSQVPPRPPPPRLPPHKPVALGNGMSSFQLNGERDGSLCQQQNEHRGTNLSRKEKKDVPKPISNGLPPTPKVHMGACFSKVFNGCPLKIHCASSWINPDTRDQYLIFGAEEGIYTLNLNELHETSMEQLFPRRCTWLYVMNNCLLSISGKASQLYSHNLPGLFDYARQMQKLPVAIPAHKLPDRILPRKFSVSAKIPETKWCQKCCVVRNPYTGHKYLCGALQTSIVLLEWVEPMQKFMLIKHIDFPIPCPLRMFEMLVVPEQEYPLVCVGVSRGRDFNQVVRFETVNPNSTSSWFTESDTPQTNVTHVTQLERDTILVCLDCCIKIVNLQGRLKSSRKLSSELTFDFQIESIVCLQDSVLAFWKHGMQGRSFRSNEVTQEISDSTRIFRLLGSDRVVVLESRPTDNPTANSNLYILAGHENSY

Work on `Cc1ccc2c(Nc3ccc(Cl)cc3)nccc2c1Nc1ncccc1-c1ncnc2[nH]cnc12.Cl.Cl.Cl` yielded an Activity [1] of 100%, an Activity [2] of 100% and an Activity [3] of 87%. The Activity [4] was 51%, the Activity [5] was 85% and the Activity [6] was 100%. It also gave an Activity [7] of 100%, an Activity [8] of 95% and a bioavailability [9] of 79%. For the same compound, the Activity [10] was 100%, the Activity [11] was 86% and the Activity [12] was 73%. It also gave an ED50 [13] of 1.3 mg/kg, an Activity [14] of 99% and an Activity [15] of 100%. It also gave an Activity [16] of 89%, an Activity [17] of 100% and an Activity [18] of 100%. It also gave an Activity [19] of 100%, an Activity [20] of 100% and an Activity [21] of 84%. For the same compound, the Activity [22] was 40%, the Activity [23] was 92% and the Activity [24] was 85%. It also gave an Activity [25] of 92%, an Activity [26] of 64% and an Activity [27] of 100%. For the same compound, the IC50 [28] was 120 nM, the Activity [29] was 64% and the Activity [30] was 100%. The Activity [31] was 72%, the Activity [32] was 100% and the Activity [33] was 100%. It also gave an Activity [34] of 80%, an Activity [35] of 66% and an Activity [36] of 3.9%. It also gave an Activity [37] of 100% and an Activity [38] of 2.2%.
